Measurements taken from US8853171B2, “1′-substituted carba-nucleoside analogs for antiviral treatment” (Gilead Sciences, Inc., priority 2008, dated 2014).

Target: T1, HCV Δ21 NS5b polymerase (Hepatitis C virus genotype 1b, UniProt Q9WMX2)
T1 construct: 75 nM HCV Δ21 NS5b polymerase
Test: HCV IC50 determination: NS5b polymerase assay
Type: biochemical
Details: not given
Description: Assay Protocol: NS5b polymerase assay (40 μL) was assembled by adding 28 μL polymerase mixture (final concentration: 50 mM Tris-HCl at pH 7.5, 10 mM KCL, 5 mM MgCl2, 1 mM DTT, 10 mM EDTA, 4 ng/μL of RNA template, and 75 nM HCV Δ21 NS5b polymerase) to assay plates followed by 4 μL of compound dilution. The polymerase and compound were pre-incubated at 35° C. for 10 minute before the addition of 8 μL of nucleotide substrate mixture (33P-α-labeled competing nucleotide at KM and 0.5 mM of the remaining three nucleotides). The assay plates were covered and incubated at 35° C. for 90 mM. Reactions were then filtered through 96-well DEAE-81 filter plates via vacuum. The filter plates were then washed under vacuum with multiple volumes of 0.125 M NaHPO4, water, and ethanol to remove unincorporated label. Plates were then counted on TopCount to assess the level of product synthesis over background controls. The IC50 value is determined using Prism fitting program.

Row | Compound | IC50 [µM]
1 | C[C@@]1(O)[C@H](O)[C@@H](COP(=O)(O)O)O[C@@]1(C#N)c1ccc2c(N)ncnn12 [Compound 17] | < 1

Test system: HCV replicon cells
Test: HCV EC50 determination: replicon luciferase assay
Type: cell-based
Details: Hepatitis C virus, 72 h, 3 days incubation, luciferase activity
Description: Replicon cells were seeded in 96-well plates at a density of 8×10^3 cells per well in 100 μL of culture medium, excluding Geneticin. Compound was serially diluted in 100% DMSO and then added to the cells at a 1:200 dilution, achieving a final concentration of 0.5% DMSO and a total volume of 200 μL. Plates were incubated at 37° C. for 3 days, after which culture medium was removed and cells were lysed in lysis buffer provided by Promega's luciferase assay system. Following the manufacturer's instruction, 100 μL of luciferase substrate was added to the lysed cells and luciferase activity was measured in a TopCount luminometer.

Row | Compound | EC50 [µM]
2 | N#C[C@@]1(c2ccc3c(N)ncnn23)O[C@H](CO)[C@@H](O)[C@H]1O [Compound 13] | 1 to 10
3 | CO[C@@]1(c2ccc3c(N)ncnn23)O[C@H](CO)[C@@H](O)[C@@]1(C)O [Compound 3] | 10 to 100
4 | CO[C@@]1(c2ccc3c(N)ncnn23)O[C@H](CO)[C@@H](O)[C@H]1O [Compound 12] | 1 to 10
5 | C[C@@]1(O)[C@H](O)[C@@H](CO)O[C@@]1(C#N)c1ccc2c(N)ncnn12 [Compound 5] | 10 to 100
6 | C[C@@]1(c2ccc3c(N)ncnn23)O[C@H](CO)[C@@H](O)[C@@]1(C)O [Compound 4] | 10 to 100
7 | C[C@@]1(O)[C@H](O)[C@@H](CO)OC1(O)c1ccc2c(N)ncnn12 (some centres unmarked) [Compound 2] | 10 to 100
8 | CC(C)(C)C(=O)SCCOP(=O)(OCCSC(=O)C(C)(C)C)OC[C@H]1O[C@@](C#N)(c2ccc3c(N)ncnn23)[C@](C)(O)[C@@H]1O [Compound 6] | < 1
